We go through 22 compounds from US6716851B2, “Substituted 2-aryl-4-arylaminopyrimidines and analogs as activators or caspases and inducers of apoptosis and the use thereof” (Cytovia, Inc., priority 2000, dated 2004).

The structures appear in SMILES notation. Structures can show the parent of a compound that is named as a salt. Where only a bound is given, the exact number is not on record here.

For test [1], the system named is ZR-75-1 cells. In words: Caspase cascade activation (N-(Ac-DEVD)-N'-ethoxycarbonyl-R110 fluorogenic substrate) in ZR-75-1 cells. The test is classed as cell-based, Human. The conditions noted are these: ZR-75-1, 48 h incubation; for EC50: Homo sapiens, caspase activation potency; for ZR Ratio 48 hr: caspase activity: ratio of net RFU of test compound to control. The procedure: (§1) Human breast cancer cell lines T-47D and ZR-75-1 were grown according to media component mixtures designated by American Type Culture Collection +10% FCS (Invitrogen Corporation, Life Technologies division), in a 5% CO2-95% humidity incubator at 37° C. T-47D and ZR-75-1 cells were maintained at a cell density between 50 and 80% confluency at a cell density of 0.1 to 0.6×10^6 cells/ml. Cells were harvested at 600× g and resuspended at 0.65×10^6 cells/ml into appropriate media +10% FCS. An aliquot of […] of cells was added to a well of a […] microtiter plate containing 2.5 μl of a 10% DMSO in RPMI-1640 media solution containing 0.16 to 100 μM of 4-(3-methoxyanilino)-2-(2-pyridinyl)-6-(trifluoromethyl)pyrimidine or other test compound (0.016 to 10 μM final). An aliquot of 22.5 μl of cells was added to a well of a 384-well microtiter plate containing 2.5 μl of a 10% DMSO in RPMI-1640 media solution without test compound as the control sample. The samples were mixed by agitation and then incubated at 37° C. for 48 h in a 5% CO2-95% humidity incubator. After incubation, the samples were removed from the incubator and 25 μl of a solution containing 14 μM of N-(Ac-DEVD)-N′-ethoxycarbonyl-R110 fluorogenic substrate (Cytovia, Inc.; WO99/18856), 20% sucrose (Sigma), 20 mM DTT (Sigma), 200 mM NaCl (Sigma), 40 mM Na PIPES buffer pH 7.2 (Sigma), and 500 μg/ml lysolecithin (Calbiochem) was added. The samples were mixed by agitation and incubated at room temperature. Using a fluorescent plate reader (Model SpectraMax Gemini, Molecular Devices), an initial reading (T=0) was made approximately 1-2 min after addition of the substrate solution, employing excitation at 485 nm and emission at 530 nm, to determine the background fluorescence of the control sample. After the 3 h incubation, the samples were read for fluorescence as above (T=3 h).
(§2) The Relative Fluorescence Unit values (RFU) were used to calculate the sample readings as follows:
(§3) RFU(T=3h)−Control RFU(T=0)=Net RFU(T=3h)
(§4) The activity of caspase cascade activation was determined by the ratio of the net RFU value for 4-(3-methoxyanilino)-2-(2-pyridinyl)-6-(trifluoromethyl)pyrimidine or other test compound to that of control samples. The EC50 (nM) was determined by a sigmoidal dose-response calculation (Prism 2.0, GraphPad Software Inc.).

The subject of test [2] is T-47D cells. In words: Caspase cascade activation (N-(Ac-DEVD)-N'-ethoxycarbonyl-R110 fluorogenic substrate) in T-47D cells. The test is classed as cell-based, Human. The conditions noted are these: 48 h incubation; for EC50: Homo sapiens, T47D, caspase activation potency, read-out: T47 EC50; for T47 Ratio 48 hr: caspase activity: ratio of net RFU of test compound to control. The procedure:
as §1, §2, §3, §4

Turning to `COc1ccc(C)cc1Nc1cc(-c2ccccn2)nc(-c2ccccn2)n1.Cl` [Example 112, 4-(2-Methoxy-5-methylanilino)-2,6-di(2-pyridinyl)pyrimidine], in test [1], the midpoint of the response, the EC50, lay at 2370 nM and the “ZR Ratio 48 hr” value was 2.9. Besides, in test [2], the EC50 turned out to be 1860 nM and the “T47 Ratio 48 hr” value is on record as 3.3.

With `COc1ccc(C(F)(F)F)cc1Nc1cc(C(F)(F)F)nc(-c2cccnc2)n1` [Example 89, 4-(2-Methoxy-5-trifluoromethylanilino)-2-(3-pyridinyl)-6-(trifluoromethyl)pyrimidine], in test [1], the EC50 is 1600 nM and the “ZR Ratio 48 hr” value came to 9.8. Further, in test [2], the EC50 was found to be 2740 nM and the “T47 Ratio 48 hr” value was found to be 8.7.

Take `Cc1cc(Nc2cc(C(F)(F)F)nc(-c3cccnc3)n2)cc(C(F)(F)F)c1` [Example 128, 4-[3-Methyl-5-(trifluoromethyl)anilino]-2-(3-pyridinyl)-6-(trifluoromethyl)pyrimidine]: in test [1], the concentration for a half-maximal effect (EC50) is above 5000 nM and the “ZR Ratio 48 hr” value was determined as 1.5. Further, in test [2], the 50% effective concentration (EC50) was above 5000 nM and the “T47 Ratio 48 hr” value was determined as 1.4.

As to `Cl.FC(F)(F)Oc1cccc(Nc2cc(C(F)(F)F)nc(-c3ccccn3)n2)c1` [Example 156, 4-(3-Trifluoromethoxyanilino)-2-(2-pyridinyl)-6-(trifluoromethyl)pyrimidine hydrochloride], in test [1], the EC50 turned out to be 2260 nM and the “ZR Ratio 48 hr” value was 4.1. In test [2], the EC50 was above 5000 nM and the “T47 Ratio 48 hr” value was 1.7.

Regarding `CSc1cccc(Nc2cc(C(F)(F)F)nc(-c3ccccn3)n2)c1` [Example 96, 4-(3-Methylmercaptoanilino)-2-(2-pyridinyl)-6-(trifluoromethyl)pyrimidine], in test [1], the EC50 is 2760 nM and the “ZR Ratio 48 hr” value is recorded as 4.9. In addition, in test [2], the EC50 is above 5000 nM and the “T47 Ratio 48 hr” value stood at 1.4.

`CCOc1cccc(Nc2cc(C(F)(F)F)nc(-c3ccccn3)n2)c1` [Example 92, 4-(3-Ethoxyanilino)-2-(2-pyridinyl)-6-(trifluoromethyl)pyrimidine]: in test [1], the concentration giving a half-maximal response (EC50) was found to be 285 nM and the “ZR Ratio 48 hr” value was determined as 12.4. Besides, in test [2], the EC50 was 363 nM and the “T47 Ratio 48 hr” value is recorded as 16.8.

As for `Cc1ccc(C)c(Nc2cc(C(F)(F)F)nc(-c3ccncc3)n2)c1` [Example 115, 4-(2,5-Dimethylanilino)-2-(4-pyridinyl)-6-(trifluoromethyl)pyrimidine hydrochloride], in test [1], the concentration for a half-maximal effect (EC50) stood at 59 nM and the “ZR Ratio 48 hr” value came to 11.6. Besides, in test [2], the EC50 was determined as 112 nM and the “T47 Ratio 48 hr” value is listed as 14.2.

In the case of `FC(F)(F)c1cc(Nc2ccc3[nH]ccc3c2)nc(-c2cccnc2)n1` [Example 166, 4-(1 H-5-Indolyl-amino)-2-(3-pyridinyl)-6-trifluoromethyl-pyrimidine], in test [1], the half-maximal effective concentration (EC50) amounted to 532 nM and the “ZR Ratio 48 hr” value amounted to 3.3. In test [2], the concentration for a half-maximal effect (EC50) amounted to 870 nM and the “T47 Ratio 48 hr” value was 8.0.

With `Cc1ccc(C#N)c(Nc2cc(C(F)(F)F)nc(-c3cccnc3)n2)c1` [Example 120, 4-(2-Cyano-5-methylanilino)-2-(3-pyridinyl)-6-(trifluoromethyl)pyrimidine], in test [1], the midpoint of the response, the EC50, lay at 2400 nM and the “ZR Ratio 48 hr” value was determined as 4.5. Further, in test [2], the EC50 worked out at 2690 nM and the “T47 Ratio 48 hr” value is recorded as 8.2.

Turning to `COc1ccc(Cl)c(Nc2cc(C(F)(F)F)nc(-c3ccccn3)n2)c1` [Example 95, 4-(2-Chloro-5-methoxyanilino)-2-(2-pyridinyl)-6-(trifluoromethyl)pyrimidine], in test [1], a half-maximal response (EC50) required 148 nM and the “ZR Ratio 48 hr” value was found to be 8.6. Moreover, in test [2], the 50% effective concentration (EC50) is 113 nM and the “T47 Ratio 48 hr” value came to 11.6.

Consider `Cc1cc(Nc2cc(C(F)(F)F)nc(-c3cccnc3)n2)c(C)cc1O` [Example 201, 4-(2,5-Dimethyl-4-hydroxyanilino)-2-(3-pyridinyl)-6-trifluoromethylpyrimidine], for which, in test [1], it took 173 nM to reach a half-maximal effect (EC50) and the “ZR Ratio 48 hr” value is given as 4.8. Moreover, in test [2], the EC50 was determined as 333 nM and the “T47 Ratio 48 hr” value is 15.7.

As for `COc1cc(C)c(Nc2cc(C(F)(F)F)nc(-c3ccncc3)n2)cc1OC.Cl` [Example 154, 4-(4,5-Dimethoxy-2-methylanilino)-2-(4-pyridinyl)-6-(trifluoromethyl)pyrimidine hydrochloride], in test [1], the EC50 turned out to be 14 nM and the “ZR Ratio 48 hr” value amounted to 7.9. In test [2], the 50% effective concentration (EC50) turned out to be 22 nM and the “T47 Ratio 48 hr” value is 6.1.

Regarding `COc1cc(C#N)c(Nc2cc(C(F)(F)F)nc(-c3cccnc3)n2)cc1OC` [Example 203, 4-(2-Cyano-4,5-dimethoxyanilino)-2-(3-pyridinyl)-6-trifluoromethylpyrimidine], in test [1], a half-maximal effect (EC50) was put at 2630 nM and the “ZR Ratio 48 hr” value came out at 3.4. In addition, in test [2], the half-maximal effective concentration (EC50) worked out at 843 nM and the “T47 Ratio 48 hr” value was 10.7.

With `Cc1nccc(-c2cccc(Nc3cc(C(F)(F)F)nc(-c4cccnc4)n3)c2)n1` [Example 59, 4-[3-(2-Methyl-pyrimidin-4-yl)anilino]-2-(3-pyridinyl)-6-(trifluoromethyl)pyrimidine], in test [1], the EC50 is above 5000 nM and the “ZR Ratio 48 hr” value is recorded as 1.1. Moreover, in test [2], the EC50 is above 5000 nM and the “T47 Ratio 48 hr” value is 1.6.

Regarding `COc1ccc(Cl)c(Nc2cc(C(F)(F)F)nc(-c3cccnc3)n2)c1` [Example 50, 4-(2-Chloro-5-methoxyanilino)-2-(3-pyridinyl)-6-(trifluoromethyl)pyrimidine], in test [1], the EC50 is 322 nM and the “ZR Ratio 48 hr” value is recorded as 5.3. In test [2], the EC50 turned out to be 172 nM and the “T47 Ratio 48 hr” value was determined as 10.

On to `COc1ccc(Nc2cc(C)nc(-c3ccccn3)n2)cc1OC` [Example 176, 4-(3,4-Dimethoxyanilino)-6-methyl-2-(2-pyridinyl)pyrimidine], for which, in test [1], the EC50 is above 5000 nM and the “ZR Ratio 48 hr” value worked out at 1.9. Further, in test [2], the EC50 amounted to 149 nM and the “T47 Ratio 48 hr” value amounted to 4.5.

As to `COCc1cc(Nc2cccc(OC)c2)nc(-c2cccc(C)c2)n1` [Example 20, 4-(3-Methoxyanilino)-6-(methoxymethyl)-2-(3-methylphenyl)pyrimidine], in test [1], the EC50 is above 5000 nM and the “ZR Ratio 48 hr” value came out at 1.1. For the same compound, in test [2], the concentration for a half-maximal effect (EC50) was above 5000 nM and the “T47 Ratio 48 hr” value turned out to be 1.6.

In the case of `COc1ccc(OC)c(CCNc2cc(C(F)(F)F)nc(-c3cccnc3)n2)c1` [Example 200, 4-(2,5-Dimethoxyphenylethylamino)-2-(3-pyridinyl)-6-trifluoromethylpyrimidine], in test [1], the concentration giving a half-maximal response (EC50) was above 5000 nM and the “ZR Ratio 48 hr” value was found to be 1.4. In addition, in test [2], the EC50 was above 5000 nM and the “T47 Ratio 48 hr” value is recorded as 1.2.

For `COCc1cc(Nc2cc(OC)ccc2OC)nc(-c2csc(C)n2)n1` [Example 45, 4-(2,5-Dimethoxyanilino)-6-(methoxymethyl)-2-(2-methyl-1-3-thiazol-4-yl)pyrimidine], in test [1], a half-maximal effect (EC50) was put at 387 nM and the “ZR Ratio 48 hr” value was 17.3. Also, in test [2], the 50% effective concentration (EC50) amounted to 329 nM and the “T47 Ratio 48 hr” value was 21.6.

Take `COc1ccc(C)c(Nc2cc(-c3ccccn3)nc(-c3ccccn3)n2)c1` [Example 111, 4-(5-Methoxy-2-methylanilino)-2,6-di(2-pyridinyl)pyrimidine]: in test [1], the concentration for a half-maximal effect (EC50) was determined as 2570 nM and the “ZR Ratio 48 hr” value worked out at 3.9. Further, in test [2], the EC50 was found to be 1420 nM and the “T47 Ratio 48 hr” value stood at 4.0.

Turning to `Cc1ccc(O)cc1Nc1cc(C(F)(F)F)nc(-c2ccncc2)n1` [Example 118, 4-(5-Hydroxy-2-methylanilino)-2-(4-pyridinyl)-6-(trifluoromethyl)pyrimidine], in test [1], the EC50 was 31 nM and the “ZR Ratio 48 hr” value came to 9.9. Further, in test [2], the half-maximal effective concentration (EC50) was 34 nM and the “T47 Ratio 48 hr” value came to 8.8.

On to `CCc1cccc(Nc2cc(C(F)(F)F)nc(-c3ccccn3)n2)c1` [Example 93, 4-(3-Ethylanilino)-2-(2-pyridinyl)-6-(trifluoromethyl)pyrimidine], for which, in test [1], the half-maximal effective concentration (EC50) turned out to be 2030 nM and the “ZR Ratio 48 hr” value is on record as 8.2. For the same compound, in test [2], the EC50 was above 5000 nM and the “T47 Ratio 48 hr” value is 2.0.

A word on the EC50: it is the concentration needed to bring the measured effect to its halfway point.
